Counter-ions that a name gives are not always drawn.
What was measured:
[1] = test system: canine parvovirus 2c (CPV-2c); assay: CPE visual scoring assay, CPV-2c in CrFK cells; type: cell-based
[2] = test system: feline panleukopenia virus (FPV); assay: CPE visual scoring assay, FPV in CrFK cells; type: cell-based
Description: Crandell Reese Feline Kidney (CrFK) cells were grown in Dulbecco minimum essential medium (DMEM, Life Technologies) containing 1% sodium bicarbonate (Life Technologies), 1% L-Glutamine (Life Technologies) and 5% fetal calf serum (FCS, Biochrom). In a 96 well plate a serial dilution of compound was added together with 10 TCID50 of feline panleukopenia virus (FPV) or 10 TCID50 canine parvovirus 2c (CPV-2c) and 20,000 CrFK cells. Infected cells without any added compound were used as positive controls (virus control) and uninfected cells were used as negative controls (cell control). The cells were incubated for 4 days and viral cytopathogenic effect (CPE) was scored visually. EC50-values were determined as the concentration of compound that inhibited 50% of the viral replication as compared with virus control.
2-methyladamantan-2-amine HCl and 2-ethyladamantan-2-amine HCl were dissolved in Dulbecco's phosphate buffered saline (DPBS) at a concentration of 10 mM. The inhibition experiments and the preparation thereof were performed as described above for Example 2. […]

[3] = test system: canine parvovirus 2c (CPV-2c); assay: CPV-2c DNA reduction by quantitative PCR, CrFK cells; type: cell-based
[4] = test system: feline panleukopenia virus (FPV); assay: FPV DNA reduction by quantitative PCR, CrFK cells; type: cell-based; conditions: read-out: EC50-value (μM) for FPV, DNA reduction
Description: (§1) Amantadine, amantadine hydrochloride (HCl) and memantine were dissolved in Dulbecco's phosphate buffered saline (DPBS) at a concentration of 10 mM. Crandell Reese Feline Kidney (CrFK) cells were grown in Dulbecco minimum essential medium (DMEM, Life Technologies) containing 1% sodium bicarbonate (Life Technologies), 1% L-Glutamine (Life Technologies) and 5% fetal calf serum (FCS, Biochrom). In a 24 well plate 100,000 CrFK cells were seeded on day 0. On day 1, the medium was removed and 10 TCID50 of FPV or 10 TCID50 CPV-2c was added and incubated for 2 h at 37° C. in humidified conditions. After incubation, medium was removed and CrFK cells were washed with DPBS. Subsequently, a serial dilution of compound in culture medium was added (250, 50, and 10 μM). Infected cells without any added compound were used as positive controls (virus control) and uninfected cells were used as negative controls (cell control). The cells were incubated at 37° C. in humidified conditions. After 4 days of incubation medium containing newly produced virus particles was collected and viral titers were determined using CrFK cells. In addition, 200 μL of supernatant was extracted to obtain FPV or CPV-2c DNA using the QIAamp DNA extraction kit (Qiagen). The extracted FPV DNA was detected by a real time PCR using the Taqman Fast Universal mastermix (Life Technologies) and the standard Fast cycling protocol using the StepOnePlus real time device (Applied Biosystems). In the PCR mixture an optimized 900 nM of each forward and reverse primer was used and 250 nM FAM-BHQ1 labeled probe as published by Decaro et al. (J. Virol. Methods 2008, 147, 67-71). EC50 values were determined as the concentration of compound that inhibited 50% of the viral DNA.
2-methyladamantan-2-amine HCl and 2-ethyladamantan-2-amine HCl were dissolved in Dulbecco's phosphate buffered saline (DPBS) at a concentration of 10 mM. The inhibition experiments and the preparation thereof were performed as described above for Example 2.

[5] = test system: canine parvovirus 2c (CPV-2c); assay: CPV-2c titer reduction, titration of produced virus on CrFK cells; type: cell-based
[6] = test system: feline panleukopenia virus (FPV); assay: FPV titer reduction, titration of produced virus on CrFK cells; type: cell-based
Description: as §1
Reduction of CPV-2c and FPV titers under increasing concentrations of amantadine hydrochloride (HCl) and memantine are shown in Table 3a and 3b, respectively. Viral titers are determined by titration of the produced virus on CrFK cells and incubated for 5 days. The obtained titers where compared with the control (virus production without addition of compound).

[7] = test system: canine parvovirus type 2 (CPV2); assay: Treatment of dog naturally infected with canine parvovirus type 2; type: in vivo; conditions: beagle puppy, CPV2 PCR-positive, 10 mg/kg twice daily for 2 weeks
[8] = Canine parvovirus, 96 h, Table 1, CPE visual scoring, CrFK cells, 10 TCID50, 4 days, read-out: EC50-value (μM) for CPV-2c
[9] = Feline panleukopenia virus, CRFK, 96 h, Table 1, CPE visual scoring, CrFK cells, 10 TCID50, 4 days, read-out: EC50-value (μM) for FPV
[10] = Canine parvovirus, CRFK, Table 4a, CPE visual scoring assay, read-out: EC50-value (μM) for CPV-2c
[11] = CRFK, Table 4b, quantitative PCR, read-out: EC50-value (μM) for CPV-2c, DNA reduction
[12] = Feline panleukopenia virus, CRFK, read-out: EC50-value (μM) for FPV, Table 4a, CPE visual scoring assay
[13] = Feline panleukopenia virus, CRFK, Table 4b, quantitative PCR
[14] = 96 h, Table 2, viral DNA in supernatant by quantitative PCR, CrFK cells, 4 days, read-out: EC50-value (μM) for CPV-2c, DNA reduction
[15] = Canine parvovirus, CRFK, 96 h, read-out: EC50-value (μM) for CPV-2c, Table 1, CPE visual scoring, CrFK cells, 10 TCID50, 4 days
[16] = Feline panleukopenia virus, CRFK, 96 h, Table 2, viral DNA in supernatant by quantitative PCR, CrFK cells, 4 days

SMILES: NCC12CC3CC(CC(C3)C1)C2 [1-adamantanemethylamine]
- EC50 [1, 8]: > 250 µM
- EC50 [2, 9]: > 250 µM

SMILES: NC1C2CC3CC(C2)CC1C3 (centres unmarked) [2-adamantylamine HCl, 2-adamantylamine hydrochloride]
- EC50 [1, 8]: 5.12 µM
- EC50 [2, 9]: 17.3 µM

SMILES: CCC1(N)C2CC3CC(C2)CC1C3 (centres unmarked) [2-ethyladamantan-2-amine]
- EC50 [1, 10]: 4.2 µM
- EC50 [3, 11]: 2.44 µM
- EC50 [2, 12]: 2.42 µM
- EC50 [4, 13]: 1.31 µM

SMILES: CC1(N)C2CC3CC(C2)CC1C3 (centres unmarked) [2-methyladamantan-2-amine]
- EC50 [1, 10]: 2.25 µM
- EC50 [3, 11]: 1.14 µM
- EC50 [2, 12]: 1.95 µM
- EC50 [4, 13]: < 0.781 µM

SMILES: NC12CC3CC(C1)CC(O)(C3)C2 [3-amino-1-amantadol]
- EC50 ([1]; Table 1, CPE visual scoring, CrFK cells, 10 TCID50, 4 days, read-out: EC50-value (μM) for CPV-2c): > 250 µM
- EC50 ([2]; Table 1, CPE visual scoring, CrFK cells, 10 TCID50, 4 days, read-out: EC50-value (μM) for FPV): > 250 µM

SMILES: Cl.NC12CC3CC(CC(C3)C1)C2 [Amantadine HCl, 1-Aminoadamantane hydrochloride]
- EC50 [1, 8]: 14 µM
- Titer reduction of CPV-2c, log10 reduction compared with control ([5]; 10 μM compound): 0.50 log10
- Titer reduction of CPV-2c, log10 reduction compared with control ([5]; 50 μM compound): 2.71 log10
- Titer reduction of CPV-2c, log10 reduction compared with control ([5]; 250 μM compound): 2.71 log10
- EC50 [3, 14]: 6.59 µM
- EC50 ([2]; Table 1, CPE visual scoring, CrFK cells, 10 TCID50, 4 days, hydrochloride, read-out: EC50-value (μM) for FPV): 33.3 µM
- Titer reduction of FPV, log10 reduction compared with control ([6]; 10 μM compound): 0 log10
- Titer reduction of FPV, log10 reduction compared with control ([6]; 50 μM compound): 1.50 log10
- Titer reduction of FPV, log10 reduction compared with control ([6]; 250 μM compound): 2.44 log10
- Clinical signs of parvovirus infection [7]: improved from day 3 onwards
- Recovery after 2 weeks of treatment [7]: recovered completely
- EC50 ([4]; Table 2, viral DNA in supernatant by quantitative PCR, CrFK cells, 4 days, hydrochloride): 30.1 µM

SMILES: NC12CC3CC(CC(C3)C1)C2 [Amantadine, amantadine]
- EC50 [1, 15]: 22.6 µM
- Titer reduction of CPV-2c, log10 reduction compared with control ([5]; 10 μM compound): 0 log10
- Titer reduction of CPV-2c, log10 reduction compared with control ([5]; 50 μM compound): 2.23 log10
- Titer reduction of CPV-2c, log10 reduction compared with control ([5]; 250 μM compound): 2.23 log10
- EC50 ([3]; CRFK, 96 h, read-out: EC50-value (μM) for CPV-2c, DNA reduction, Table 2, viral DNA in supernatant by quantitative PCR, CrFK cells, 4 days): 53.5 µM
- EC50 [2, 9]: 18.7 µM
- Titer reduction of FPV, log10 reduction compared with control ([6]; 10 μM compound): 0 log10
- Titer reduction of FPV, log10 reduction compared with control ([6]; 50 μM compound): 0.48 log10
- Titer reduction of FPV, log10 reduction compared with control ([6]; 250 μM compound): 1.43 log10
- EC50 [4, 16]: 57.1 µM

SMILES: CC12CC3CC(C)(C1)CC(N)(C3)C2 [Memantine, memantine]
- EC50 [1, 8]: 23.9 µM
- Titer reduction of CPV-2c, log10 reduction compared with control ([5]; 10 μM compound): 0 log10
- Titer reduction of CPV-2c, log10 reduction compared with control ([5]; 50 μM compound): 0.50 log10
- Titer reduction of CPV-2c, log10 reduction compared with control ([5]; 250 μM compound): 1.55 log10
- EC50 [3, 14]: 17.9 µM
- EC50 [2, 9]: 23.3 µM
- Titer reduction of FPV, log10 reduction compared with control ([6]; 10 μM compound): 0 log10
- Titer reduction of FPV, log10 reduction compared with control ([6]; 50 μM compound): 0.71 log10
- Titer reduction of FPV, log10 reduction compared with control ([6]; 250 μM compound): 1.41 log10
- EC50 [4, 16]: 42.6 µM

SMILES: CNC12CC3CC(CC(C3)C1)C2 [N-methyl-1-adamantylamine]
- EC50 [1, 8]: > 250 µM
- EC50 [2, 9]: > 250 µM

SMILES: CC(N)C12CC3CC(CC(C3)C1)C2 (centres unmarked) [Rimantadine, rimantadine]
- EC50 [1, 15]: > 250 µM
- EC50 [2, 9]: > 250 µM

— patent publication US20150018427A1, “COMPOUNDS FOR TREATING PARVOVIRUS INFECTION” (ARATANA THERAPEUTICS NV, priority 2012, published 2015)
